Assay results reported in ChEMBL document CHEMBL5244223, “l,8-Naphthalimide based DNA intercalators and anticancer agents. A systematic review from 2007 to 2017” (Eur J Med Chem, 2018).
Values after ≈ are worked out from the molar mass of the structure shown.

Legend:
SW-620 = assay: Cytotoxicity against human SW620 cells assessed as cell growth inhibition incubated for 48 hrs by sulforhodamine B reagent assay; format: functional, cell-based; settings: SW-620, 48 h
786-0 = assay: Cytotoxicity against human 786-0 cells assessed as cell growth inhibition incubated for 48 hrs by sulforhodamine B reagent assay; format: functional, cell-based; settings: 786-0, 48 h
T47D = assay: Cytotoxicity against human T47D cells assessed as cell growth inhibition incubated for 48 hrs by sulforhodamine B reagent assay; format: functional, cell-based
SK-MEL-28 = assay: Cytotoxicity against human SK-MEL-28 cells assessed as cell growth inhibition incubated for 48 hrs by sulforhodamine B reagent assay; format: functional, cell-based; settings: SK-MEL-28, 48 h
Hs-578T = assay: Cytotoxicity against human Hs-578T cells assessed as cell growth inhibition incubated for 48 hrs by sulforhodamine B reagent assay; format: functional, cell-based
RXF 393 = assay: Cytotoxicity against human RXF 393 cells assessed as cell growth inhibition incubated for 48 hrs by sulforhodamine B reagent assay; format: functional, cell-based; settings: RXF 393, 48 h
K562 [1] = assay: Cytotoxicity against human K562 cells assessed as cell growth inhibition incubated for 48 hrs by sulforhodamine B reagent assay; format: functional, cell-based; settings: K562, 48 h
SF-539 = assay: Cytotoxicity against human SF-539 cells assessed as cell growth inhibition incubated for 48 hrs by sulforhodamine B reagent assay; format: functional, cell-based; settings: SF-539, 48 h
BT-549 = assay: Cytotoxicity against human BT-549 cells assessed as cell growth inhibition incubated for 48 hrs by sulforhodamine B reagent assay; format: functional, cell-based; settings: BT-549, 48 h
SNB-75 = assay: Cytotoxicity against human SNB-75 cells assessed as cell growth inhibition incubated for 48 hrs by sulforhodamine B reagent assay; format: functional, cell-based; settings: SNB-75, 48 h
HCT-116 [2] = assay: Cytotoxicity against human HCT-116 cells assessed as cell growth inhibition incubated for 48 hrs by sulforhodamine B reagent assay; format: functional, cell-based; settings: HCT-116, 48 h
NCI-H322M = assay: Cytotoxicity against human NCI-H322M cells assessed as cell growth inhibition incubated for 48 hrs by sulforhodamine B reagent assay; format: functional, cell-based
MDA-MB-231 [3] = assay: Cytotoxicity against human MDA-MB-231 cells assessed as cell growth inhibition incubated for 48 hrs by sulforhodamine B reagent assay; format: functional, cell-based; settings: MDA-MB-231, 48 h
MCF7 [4] = assay: Cytotoxicity against human MCF7 cells assessed as cell growth inhibition incubated for 48 hrs by sulforhodamine B reagent assay; format: functional, cell-based; settings: MCF7, 48 h
SK-MEL-5 = assay: Cytotoxicity against human SK-MEL-5 cells assessed as cell growth inhibition incubated for 48 hrs by sulforhodamine B reagent assay; format: functional, cell-based; settings: SK-MEL-5, 48 h
EKVX = assay: Cytotoxicity against human EKVX cells assessed as cell growth inhibition incubated for 48 hrs by sulforhodamine B reagent assay; format: functional, cell-based
OVCAR-4 = assay: Cytotoxicity against human OVCAR-4 cells assessed as cell growth inhibition incubated for 48 hrs by sulforhodamine B reagent assay; format: functional, cell-based; settings: OVCAR-4, 48 h
U-251 = assay: Cytotoxicity against human U-251 cells assessed as cell growth inhibition incubated for 48 hrs by sulforhodamine B reagent assay; format: functional, cell-based; settings: U-251, 48 h
DU-145 = assay: Cytotoxicity against human DU-145 cells assessed as cell growth inhibition incubated for 48 hrs by sulforhodamine B reagent assay; format: functional, cell-based; settings: DU-145, 48 h
Malme-3M = assay: Cytotoxicity against human Malme-3M cells assessed as cell growth inhibition incubated for 48 hrs by sulforhodamine B reagent assay; format: functional, cell-based
KM12 = assay: Cytotoxicity against human KM12 cells assessed as cell growth inhibition incubated for 48 hrs by sulforhodamine B reagent assay; format: functional, cell-based; settings: KM12, 48 h
Calf thymus DNA [5] = assay: Binding affinity to calf thymus DNA assessed as apparent binding constant by fluorescence based EtBr-displacement assay; format: nucleic-acid assay; settings: Bos taurus
MCF7 [6] = assay: Antiproliferative activity against human MCF7 cells assessed as inhibition of cell proliferation incubated for 72 hrs by MTT assay; format: functional, cell-based; settings: MCF7, 72 h
A549 [7] = assay: Antiproliferative activity against human A549 cells assessed as inhibition of cell proliferation incubated for 72 hrs by MTT assay; format: functional, cell-based; settings: A549, 72 h
Jurkat = assay: Antiproliferative activity against human Jurkat cells assessed as inhibition of cell proliferation incubated for 72 hrs by MTT assay; format: functional, cell-based
Escherichia coli [8] = assay: Antibacterial activity against Escherichia coli MTCC 443 assessed as inhibition of bacterial growth by agar well diffusion assay; format: functional
COLO 205 = assay: Cytotoxicity against human COLO 205 cells assessed as inhibition of cell growth incubated for 72 hrs by SRB assay; format: functional, cell-based; settings: COLO 205, 72 h, pooled result: one value given for 7 cell lines, strains, targets or settings
Calf thymus DNA [9] = assay: Binding affinity to calf thymus DNA assessed as DNA intercalation by measuring change in melting temperature by thermal denaturation assay; format: nucleic-acid assay; settings: Bos taurus
Staphylococcus aureus [10] = assay: Antibacterial activity against Staphylococcus aureus MTCC 96 assessed as inhibition of bacterial growth by agar well diffusion assay; format: functional
Pseudomonas aeruginosa = assay: Antibacterial activity against Pseudomonas aeruginosa MTCC 741 assessed as inhibition of bacterial growth by agar well diffusion assay; format: functional
[11] = system: Staphylococcus epidermidis; assay: Antibacterial activity against Staphylococcus epidermidis MTCC 435 assessed as inhibition of bacterial growth by agar well diffusion assay; format: functional
MDA-MB-231 [12] = assay: Antiproliferative activity against human MDA-MB-231 cells assessed as inhibition of cell proliferation incubated for 48 hrs by MTT assay; format: functional, cell-based; settings: MDA-MB-231, 48 h
HCT-116 [13] = assay: Antiproliferative activity against human HCT-116 cells assessed as inhibition of cell proliferation incubated for 48 hrs by MTT assay; format: functional, cell-based; settings: HCT-116, 48 h
Mus musculus = assay: Antitumor activity against mouse H22 cells xenografted in Kunming mouse assessed as decrease in tumor growth at 1 mg/kg administered as single injection via caudal vein for 7 consecutive days; format: functional; set-up: scale not given: the % may be the effect or the level left
HepG2 = assay: Antiproliferative activity against human HepG2 cells assessed as inhibition of cell proliferation incubated for 48 hrs by MTT assay; format: functional, cell-based; settings: HepG2, 48 h
K562 [14] = assay: Antiproliferative activity against human K562 cells assessed as inhibition of cell proliferation incubated for 48 hrs by MTT assay; format: functional, cell-based; settings: K562, 48 h
Calf thymus DNA [15] = assay: Binding affinity to calf thymus DNA assessed as binding constant incubated for 30 mins by fluorescence based EtBr-displacement assay; format: nucleic-acid assay; settings: Bos taurus
Escherichia coli [16] = assay: Antibacterial activity against Escherichia coli MTCC-739 assessed as inhibition of bacterial growth incubated for 24 hrs by two-fold serial dilution assay; format: functional
Staphylococcus aureus [17] = assay: Antibacterial activity against Staphylococcus aureus MTCC-737 assessed as inhibition of bacterial growth incubated for 24 hrs by two-fold serial dilution assay; format: functional
Salmonella typhimurium = assay: Antibacterial activity against Salmonella typhimurium MTCC-98 assessed as inhibition of bacterial growth incubated for 24 hrs by two-fold serial dilution assay; format: functional, Salmonella enterica subsp. enterica serovar Typhimurium; settings: Salmonella enterica
P388 [18] = assay: Cytotoxicity against mouse P388 cells assessed as cell growth inhibition by MTT assay; format: functional, cell-based
MCF7 [19] = assay: Cytotoxicity against human MCF7 cells assessed as cell growth inhibition by MTT assay; format: functional, cell-based
[20] = Selectivity ratio of IC50 for cytotoxicity against human HeLa cells under hypoxic condition to IC50 for cytotoxicity against human HeLa cells under aerobic condition; format: functional
A549 [21] = assay: Cytotoxicity against human A549 cells assessed as cell growth inhibition by MTT assay; format: functional, cell-based
HCT-8 = assay: Cytotoxicity against human HCT-8 cells assessed as cell growth inhibition by MTT assay; format: functional, cell-based
A-375 [22] = assay: Cytotoxicity against human A-375 cells assessed as cell growth inhibition by MTT assay; format: functional, cell-based
HL-60 = assay: Cytotoxicity against human HL-60 cells assessed as cell growth inhibition by MTT assay; format: functional, cell-based
HeLa [23] = assay: Cytotoxicity against human HeLa cells assessed as cell growth inhibition by MTT assay; format: functional, cell-based
A-375 [24] = assay: Antiproliferative activity against human A-375 cells assessed as inhibition of cell proliferation by MTT assay; format: functional, cell-based
P388 [25] = assay: Antiproliferative activity against mouse P388 cells assessed as inhibition of cell proliferation by MTT assay; format: functional, cell-based
HeLa [26] = assay: Antiproliferative activity against human HeLa cells assessed as inhibition of cell proliferation by MTT assay; format: functional, cell-based

CN1CCN(c2ccc3nc(-c4ccc(OCCCN5C(=O)c6cccc7cccc(c67)C5=O)cc4)[nH]c3c2)CC1
IC50 (SW-620): 110 nM | IC50 (786-0): 110 nM | IC50 (T47D): 110 nM | IC50 (SK-MEL-28): 110 nM | IC50 (Hs-578T): 110 nM | IC50 (RXF 393): 110 nM | IC50 (K562 [1]): 110 nM | IC50 (SF-539): 110 nM | IC50 (BT-549): 110 nM | IC50 (SNB-75): 110 nM | IC50 (HCT-116 [2]): 110 nM | IC50 (NCI-H322M): 110 nM | IC50 (MDA-MB-231 [3]): 110 nM | IC50 (MCF7 [4]): 110 nM | IC50 (SK-MEL-5): 110 nM | IC50 (EKVX): 110 nM | IC50 (OVCAR-4): 110 nM | IC50 (U-251): 110 nM | IC50 (DU-145): 110 nM | IC50 (Malme-3M): 110 nM | IC50 (KM12): 110 nM

O=C1c2cccc3cccc(c23)C(=O)N1CCCCCCNCc1ccccn1
Kapp (Calf thymus DNA [5]): 3.1 10^6/M | IC50 (MCF7 [6]): 5.67 µM | IC50 (A549 [7]): 5.67 µM | IC50 (Jurkat): 5.58 µM

O=C1c2cccc3cccc(c23)C(=O)N1c1nc(-c2cc3cc(Cl)cc(Cl)c3oc2=O)cs1
MIC (Escherichia coli [8]): 18.8 µg/mL (≈ 38 µM) | IC50 (COLO 205): 190 nM | ΔTm (Calf thymus DNA [9]): 3.8 °C | MIC (Staphylococcus aureus [10]): 18.8 µg/mL (≈ 38 µM) | MIC (Pseudomonas aeruginosa): 18.8 µg/mL (≈ 38 µM) | MIC [11]: 18.8 µg/mL (≈ 38 µM)

Cl.Cl.Cl.Cl.NCCCNCCCCNCCCNCC(=O)NCCCN1C(=O)c2cccc3cccc(c23)C1=O
IC50 (MDA-MB-231 [12]): 2860 nM | IC50 (HCT-116 [13]): 2860 nM | Activity (Mus musculus): 70.92% | IC50 (HepG2): 2860 nM | IC50 (K562 [14]): 2860 nM

O=C1c2cccc3cccc(c23)C(=O)N1CCCCOc1ccc(-c2nc3ccc(N4CCOCC4)cc3[nH]2)cc1
IC50 (SW-620): 110 nM | IC50 (786-0): 110 nM | IC50 (T47D): 110 nM | IC50 (SK-MEL-28): 110 nM | IC50 (Hs-578T): 110 nM | IC50 (RXF 393): 110 nM | IC50 (K562 [1]): 110 nM | IC50 (SF-539): 110 nM | IC50 (BT-549): 110 nM | IC50 (SNB-75): 110 nM | IC50 (HCT-116 [2]): 110 nM | IC50 (NCI-H322M): 110 nM | IC50 (MDA-MB-231 [3]): 110 nM | IC50 (MCF7 [4]): 110 nM | IC50 (SK-MEL-5): 110 nM | IC50 (EKVX): 110 nM | IC50 (OVCAR-4): 110 nM | IC50 (U-251): 110 nM | IC50 (DU-145): 110 nM | IC50 (Malme-3M): 110 nM | IC50 (KM12): 110 nM

COc1ccc(/C=N/N2C(=O)c3cccc4cccc(c34)C2=O)cc1OC
Kb (Calf thymus DNA [15]): 2 10^4/M | MIC (Escherichia coli [16]): 31 µg/mL (≈ 86 µM) | MIC (Staphylococcus aureus [17]): 62 µg/mL (≈ 172 µM) | MIC (Salmonella typhimurium): 62 µg/mL (≈ 172 µM)

COc1ccc2c(CC(=O)OCCN3C(=O)c4cccc5c(N(C)C)ccc(c45)C3=O)c(C)n(C(=O)c3ccc(Cl)cc3)c2c1
IC50 (P388 [18]): 13.9 µM | IC50 (MCF7 [19]): 13.9 µM | Ratio IC50 [20]: 1.3 | IC50 (A549 [21]): 13.9 µM | IC50 (HCT-8): 13.9 µM | IC50 (A-375 [22]): 13.9 µM | IC50 (HL-60): 13.9 µM | IC50 (HeLa [23]): 13.9 µM

CN(C)CCNc1ccc2c3c(cccc13)C(=O)N(c1ccc(S(=O)(=O)NC(=O)c3ccc(N4CCN(CC=C(c5ccccc5)c5ccccc5)CC4)cc3)cc1)C2=O
IC50 (A-375 [24]): 6.7 µM | IC50 (P388 [25]): 6.7 µM | IC50 (HeLa [26]): 6.7 µM
